Measurements: patent publication US20080039434A1, “Treatment of Interstitial Cystitis with Vitamin D Compounds” (BioXell S. p.A., priority 2004, published 2008)

Columns and labels:
MMCP1 protein = test: Serum level of mast-cell derived chymase MMCP1 protein, allergic IC in mice; type: in vivo, mouse
Protocol: (§1) Mice (BALB/c, females 8 weeks old, weight 18-20 g, Charles River, Calco ITA) were sensitized by injecting 10 ug/mouse of chicken ovalbumin from Sigma (OVA, grade V) in the presence of 4 mg of alum (SERVA, Germany) by intraperitoneal injection, once a week for 4 weeks. This induces a sustained level of IgE detectable in serum.
(§2) One or two weeks after the last immunization boost, sensitized mice were anesthetized (1.5% Isoflurane) and then trans-urethrally catheterized (24 gauge, ¾ in.; Angiocath, Becton-Dickson). Slight digital pressure was applied the lower abdomen to drain the urine.
(§3) The urinary bladders were instilled with either 150 ul of either saline or OVA alone, (1 mg/150 ul) infused at a slow rate to avoid trauma and vesico-ureteral reflux and repeated twice within a 30-min interval with the syringe kept in place on the catheter for at least 30 min. Intravesical challenge was repeated 7-10 days after the first one with the same procedure.
Treatment Group: 10 mice were treated with oral vitamin D3 analogue (1-alpha-fluoro-25-hydroxy-16,23Ediene-26,27-bishomo-20-epi-cholecalciferol) Compound “B” for 14 days (daily dose of either 30 or 75 ug/kg).
(§4) An ethanol stock solution of Compound B (1 mg/ml) was dissolved in Miglyol vehicle at the appropriate concentration. Control animals received the vehicle containing the same amount of ethanol. Drug (or vehicle) treatment was carried out by daily gavage after weighing the animal. Drug solution was prepared calculating a final volume of 100 ul/10 grams body weight, and treatment was started on the day of the first intravesical ovalbumin challenge, maintained daily, but discontinued over the weekends, for 12 days total treatment. FIG. 7 illustrates the timeline of the experiment.
(§5) Experiments in Example 7 were performed according to the general procedures described previously in Example 6. Mice were challenged with saline (untreated) or ovalbumin (treatment with vehicle or one of Compounds C-I at a dosage indicated in Table 6 in ug/kg).

[1] = Calcemia assessment in allergic IC mice (colorimetric serum calcium assay); type: in vivo, mouse; set-up: serum calcium levels: dose or concentration left out as unconfirmed
Protocol: Serum calcemia was evaluated by a commercially available colorimetric assay (Calcium Dry-Fast, Sentinel CH. Italy). Briefly, 10 ul serum were added to 100 ul reaction solution prepared according to the manufacturer's procedure in a 96-wells plate. After 5 min incubation at RT samples were read at 570 nm with a spectrophotometer and the calcium levels were calculated in triplicate by using a standard reference as directed.

[2] = test system: ovalbumin-challenged mouse bladder; test: Blind histological analysis of bladder sections, allergic IC in mice; type: in vivo
Protocol: as §1, §2, §3, §4
Bladders were explanted from the animals, longitudinally divided in two moieties, one half was either immediately fixed in formalin (10% buffered) for at least 3 hrs or snap frozen in liquid nitrogen upon inclusion in OCT freezing medium (Tissue-Tek Sakura). For histological analysis, fixed bladders were further processed and finally paraffin embedded. Five um sections were serially cut then stained with GIEMSA (BDH, 20% solution, 3 hrs RT) and then de-stained in 0.1% acetic acid for 10 sec. After a clarification step in Xylene, slides were permanently mounted with Eukitt medium and analyzed by a pathologist in a blinded fashion in order to evaluate for inflammatory cell infiltrate, mast cell numbers, and the presence of interstitial edema. A semi-quantitative histological score was used, assigning: 1 for mild infiltrate, no edema; 2 for intermediate infiltration, little edema; and 3 for severe infiltration and edema.
as §5

[3] = test system: allergen-induced chronic bladder inflammation; test: Efficacy ranking in the allergen-induced chronic bladder inflammation model of interstitial cystitis; type: in vivo, mouse; conditions: each compound at its tested dosage
Protocol: as §5
Summarizing all the results presented above in Example 7, we can conclude that these compounds can be ranked with respect to their efficacy in reducing several parameters measuring inflammation of the bladder in the allergen-induced chronic bladder inflammation model of interstitial cystitis.

[4] = 75 ug/kg oral vs vehicle, p<0.05
[5] = 75 ug/kg oral vs vehicle, p<0.01

SMILES: CC(=O)OC1C/C(=C/C=C2\CCC[C@]3(C)C(C(C)C/C=C\C(O)(C(F)(F)F)C(F)(F)F)=CCC23)C[C@@H](OC(C)=O)C1 (some centres unmarked) [Compound A, 1,3-Di-O-acetyl-1,25-dihydroxy-16,23Z-diene-26,27-hexafluoro-19-nor-cholecalciferol]
- serum level of the MMCP1 protein (MMCP1 protein; ovalbumin challenged vs vehicle, oral ug/kg: A 0.1, E 0.3, F 30, F p<0.05, A, E p<0.001): statistically significant reduction
- serum calcium levels relative to the vehicle treated control group ([1]; oral ug/kg: C 3, A 0.1, E 0.3, F 30, G 100, H 1, I 3, elevations p<0.001): no significant increase
- numbers of eosinophils in the bladder wall ([2]; 0.1 ug/kg oral vs vehicle, p<0.05): significantly reduced numbers
- Efficacy ranking in reducing parameters of bladder inflammation [3]: Compound E>Compound F>Compound B>Compound H>Compound I>Compound A>Compound A=Compound G

SMILES: C=C1/C(=C\C=C2/CCC[C@]3(C)C([C@@H](C)C/C=C/C(O)(CC)CC)=CC[C@@H]23)C[C@@H](O)C[C@@H]1F [Compound B, 1-alpha-fluoro-25-hydroxy-16,23E-diene-26,27-bishomo-20-epi-cholecalciferol]
- serum levels of chymase MMCP1 protein (MMCP1 protein; [4]): significantly lower
- serum calcium level [1, 4]: small, but statistically significant increase
- calcemic levels relative to the toxicity threshold ([1]; 75 ug/kg oral, toxicity threshold 10.7 mg/dl in mice): did not cause calcemic levels to rise above the toxicity threshold
- serum calcium levels ([1]; lower dosage, not shown): No significant changes
- edema in bladder sections ([2]; 75 ug/kg oral vs vehicle, p<0.001): completely resolved
- eosinophils in bladder sections [2, 5]: significant reduction
- lymphocytes in bladder sections [2, 5]: significant reduction
- mast cells in bladder sections [2, 4]: significant reduction
- signs of edema in representative bladder slides ([2]; 75 ug/kg oral, FIG. 16, x50 magnification): no signs of edema
- Efficacy ranking in reducing parameters of bladder inflammation [3]: Compound E>Compound F>Compound B>Compound H>Compound I>Compound A>Compound A=Compound G
